Tested on: bi-lateral subcutaneous tumors derived from 779E cells
Test: in-vivo analysis of ADCs cytotoxic effect in subcutaneous mouse model (loss of GFP fluorescence signal, IVIS imaging)
Details: nude mice, 779E subcutaneous tumors, tail vein injection, after 12 days
Description: After purification via gel chromatography, where the cytotoxicity effect of the drug on the eIF5A positive tumor cell compared to eIF5A negative cells was determined by measuring the loss of fluorescence signal of the GFP tagged tumor cells after administration of the ADC in vivo via tail vein injection in mice using an IVIS Spectrum in vivo imaging system.

Compound N=C(N)NCCCCCCCN [GC7, N1-guanyl-1,7-diaminoheptane] has a tumor growth inhibition of 0.4%.

— US11865182B2, “Product and process for employing GC7 (N1-guanyl-1,7-diaminoheptane) based antigen binding conjugates in cancer therapy” (priority 2017, dated 2024)
